Results published in patent US7807654B2, “Compositions and methods for treatment of mitochondrial diseases” (Wellstat Therapeutics Corporation, priority 1998, dated 2010).

What was measured:
[1] = system: mice infused with sodium azide; assay: Subcutaneous azide infusion: mortality, body weight, TUNEL staining; parameters: species or system C57/BL/6N mice; details: mouse, in vivo
taxol-treated mice = assay: Taxol-induced neuropathy, tail-flick latency; type: in vivo; details: nine days after initiation of taxol 21.6 mg/kg/day i.p. for 6 days; oral triacetyluridine 4000 mg/kg b.i.d.
Description: Two groups of 10 mice each were treated with taxol, 21.6 mg/kg/day for 6 consecutive days by intraperitoneal injection. An additional group of 10 mice received injections of vehicle alone. One of the groups of taxol-treated mice received oral triacetyluridine, 4000 mg/kg b.i.d. Nine days after the initiation of taxol treatments, nociceptive sensory deficits were tested by determining tail-flick latency after exposure of the tip of the tail to focused thermal radiation with an infrared heat lamp. In this system, delays in the tail-flick response to radiant heat correlate with sensory nerve deficits.

[2] = system: child with epilepsy, ataxia, language delay, fat intolerance, dicarboxylic aciduria; assay: Treatment of developmental delay (case, Example 4); type: in vivo, human; details: daily dose of 0.1 to 0.3 g/kg/day
Description: A child with epilepsy, ataxia, language delay, and fat intolerance, and dicarboxylic aciduria was treated with triacetyluridine at a daily dose of 0.1 to 0.3 g/kg/day.

MPTP treated mice [3] = assay: MPTP model of Parkinson's disease, second study; type: in vivo, C57/BL6 mice; details: MPTP b.i.d. for 2 days, sacrificed on day 9, mean ± SEM
Description: A second study using MPTP (25 mg/kg i.p. b.i.d. for 2 days) was performed. […] TAU or vehicle was given orally (dose of TAU=4 g/kg bw b.i.d.) starting the day before MPTP administration and ending on day 8. Mice were sacrificed on day 9.

3NP treated mice [4] = assay: 3-nitropropionic acid (3NP) model of Huntington's disease; type: in vivo, Swiss mice; details: at anytime during the study
Description: Male 6-8 month old Swiss mice (National Cancer Institute; NCI, Frederick, Md.) were treated with 3NP (65 mg/kg i.p.) daily for 4 days to induce mortality, neuronal cell loss and behavioral impairment with n=8/group. […] On day 9, the mice were perfuse fixed with 10% buffered formalin and processed for silver staining to detect neuronal damage. […] There was no mortality in the 3NP+TAU group, but 3 of 8 mice died in the vehicle+3NP group.
Behavioral scoring of the 3NP treated mice was to determine whether there was any motor impairment at anytime during the study. There were 88% of the control+3NP treated mice with behavioral impairment indicated by gross observation. A decreased incidence of impairment of only 50% was found in the TAU+3NP treated mice.
The silver staining was analyzed by a pathologist blinded to the identity of tissue samples. […] However, in the control+3NP treated mice, silver staining of synaptic terminals in the striatal area (caudate/putamen area) and substantia nigra was pronounced. Silver impregnation of axons and/or synaptic terminals in the thalamus, deep mesencephalon and/or reticular formation (medulla) was also found in […] of the control+3NP treated mice. The substantia nigra projects to the striatum and these areas are especially vulnerable to damage by 3NP. The damage to the substantia nigra and striatum was prevented by TAU.

MPTP treated mice [5] = assay: MPTP model of Parkinson's disease, first study
3NP treated mice [6] = assay: 3-nitropropionic acid (3NP) model of epilepsy; type: in vivo, CD-1 mice; details: for Latency to clonic seizure: mean ± SEM
From the text: 3-nitropropionic acid (3NP) is a mitochondrial toxin that acts by inhibiting Complex II of the respiratory chain; it is used to induce brain lesions similar to those characteristic of Huntington's disease. Seizures can also be induced by the use of 3NP as a model of epilepsy and mitochondrial dysfunction. Urbanska et al., Eur J Pharmacol, 359: 55-8 (1998). Male CD-1 mice (National Cancer Institute, NCI, Frederick. Md.) weighing between […] were used throughout. Mice were divided into groups of 5 and animals for each group were randomly chosen from different cages to avoid possible influence of age. The mice were maintained on a 12 hr light dark cycle with free access to water and food. All experiments were performed during the light period between 9:00 and 16:00 hr. Mice (n=17-20) were given 160 mg/kg 3NP and followed for seizures. 3NP was made up at 16 mg or 18 mg/ml in sterile water (pH: 7.4). 3NP was administered i.p. in a volume of 0.1 m/10 g body weight. […] Seizures were assessed similar to the methods previously described (Roberts & Keith, J Pharmacol Exp Ther, 270:505-11, 1994; Urbanska et al., Eur J Pharmacol, 359:55-8, 1998).
Behavioral observations were performed within 120 min following application of 3-NP. Three major categories of convulsive seizure response were been considered and recorded: • 1. Clonic movements: the movements of the forelimbs accompanied by facial twitching; • 2. Explosive clonic movements: the movement of all four limbs involving running, jumping and bouncing; • 3. Tonic response: including tonic flexion and tonic extension of the all four limbs.
Mortality rate was evaluated at 120 min after 3NP injection.

[7] = system: mice given intrastriatal QA; assay: Quinolinic acid (QA) model of excitotoxicity; type: in vivo, Swiss mice; details: TAU 4 g/kg bw p.o. b.i.d.
[8] = 160 mg/kg 3NP i.p., TAU 4 g/kg p.o. 2 hours prior, within 120 min

With `CC(=O)OC[C@H]1O[C@@H](n2ccc(=O)[nH]c2=O)[C@H](OC(C)=O)[C@@H]1OC(C)=O` [TAU, triacetyluridine] the “mortality due to 60 μg/hr azide infusion” value [1] was 30%, the Tail flick latency (taxol-treated mice) was 11.9 ± 0.7 s and the “decline in seizure frequency” value [2] was 50%. For the same compound, the “Striatal DA, MPTP-treated mice” value (MPTP treated mice [3]) was 26.7 ± 0.9 ng DA/mg protein, the “mice with behavioral (motor) impairment by gross observation” value (3NP treated mice [4]) was 50% and the mortality (MPTP treated mice [5]; MPTP 30 mg/kg i.p. b.i.d. for 1.5 days, TAU 4 g/kg p.o. b.i.d.) was 28.6%. The “Striatal DA, MPTP-treated mice” value (MPTP treated mice [5]; first study, eight days after stopping MPTP, mean ± SEM) was 37.9 ± 7.4 ng DA/mg protein, the “Latency to clonic seizure” value (3NP treated mice [6]; 160 mg/kg 3NP i.p., TAU 4 g/kg p.o. 2 hours prior) was 40.8 min and the “Latency to clonic seizure” value (3NP treated mice [6]; 160 mg/kg 3NP i.p., TAU 4 g/kg p.o. 2 hours prior, listed as TAU + 3NP) was 40.8 ± 4.9 min. For the same compound, the “% Clonic seizures” value (3NP treated mice [6]; [8]) was 70.6%, the “% Running seizures” value (3NP treated mice [6]; [8]) was 5.9% and the “% Mortality” value (3NP treated mice [6]; at 120 min after 3NP injection) was 11.8%. For the same compound, the “percent of mice surviving the 7 days” value ([7]; 50 nmoles QA bilaterally in striatum) was 73% and the “percent of mice surviving the 7 days” value ([7]; 100 nmoles QA bilaterally in striatum) was 19%.
